# Measurements published in patent US11020375B2, “Edaravone dosage form” (SUZHOU AUZONE BIOLOGICAL TECHNOLOGY CO., LTD, priority 2016, dated 2021).
# Key:
# [1] = Screening drug carrier Soluplus and optimizing solid dispersion: solubility of Edaravone by HPLC; type: physicochemical; conditions: 1%-6% w/v carrier solutions, 24 hours at room temperature (FIG. 2)
# Protocol: To separate glass vials, 1%, 2%, 3%, 4%, 5% and 6% w/v solutions of different carriers was added, respectively. An excess amount of Edaravone was added to the above mentioned solutions followed by continuous rotation using a mechanical shaker (Axyos Technologies, Brisbane, Australia) throughout the test for 24 hours at room temperature. After reaching equilibrium, each vial was centrifuged at 3000 rpm for 5 min, and excess insoluble Edaravone was discarded by filtration through 0.45 μm PVDF syringe filter. Subsequently, the filtrates were diluted using methanol. The solubility analysis was performed in triplicate by using the previously developed and validated HPLC method.
# [2] = Stability studies in simulated gastrointestinal fluids at various pHs; type: physicochemical
# Protocol: Simulated gastrointestinal fluids (without enzymes and bile component) were prepared according to the USP methods. SGF (simulated gastric fluid) 1.2 pH (USP) and SIF (Simulating Intestinal fluid) 6.8 pH (USP) and 7.4 pH. To determine the chemical stability of SD formulations, the solutions in miliQ water was prepared and used. SD formulation was dissolved in aforesaid buffer solutions. Samples were collected at the predetermined time interval and filtered through 0.45 μm PVDF syringe filter. All samples were analysed in triplicate by HPLC.
compound,measurement,setting,value
"CC1=NN(c2ccccc2)C(=O)C1 [Edaravone, 3-methyl-1-phenyl-2-pyrazol-5-one]",solubility of Edaravone in Soluplus carrier solutions,[1],solubility improvement in concentration-dependent manner
same,stability in biorelevant media,[2]; acidic pH (FIG. 8A),maintained substantially constant
same,stability in biorelevant media,[2]; neutral to basic pH (FIG. 8A),significant degradation
